Read-outs that look alike come from different tables or passages of the source.
Assays:
S. epidermidis = format: cell-based
S. aureus = test: Bacterial photoinactivation in red cell suspensions; format: cell-based
[1] = system: gram positive and gram negative organisms; format: cell-based
intracellular VSV = format: cell-based, Vesicular Stomatitis Virus
S. liquefaciens = format: cell-based
S. marcescens = format: cell-based
extracellular VSV = format: cell-based, Vesicular Stomatitis Virus
D. radiodurans = test: Bacterial photoinactivation in red cell suspensions; format: cell-based; details: 160 μM compound 2; RBCs 20% hematocrit in Erythrosol; 2 min 8.9 mW/cm^2 red light
E. coli = test: as above; format: cell-based
P. fluorescens = format: cell-based
Y. enterocolitica = test: Bacterial photoinactivation in red cell suspensions; format: cell-based
red cells [2] = system: red cells
extracellular PRV = format: cell-based, Pseudorabies virus
intracellular HIV = test: Photoinactivation of intracellular HIV in RBC suspensions; format: cell-based, HIV-1; details: 80 μM TP; 200 μM DP; 20-percent hct RBCs in Erythrosol; 1.1 J/cm^2 light
red cells [3] = details: n=10
all tested viruses = format: cell-based
RBCs [4] = details: n = 4
extracellular BVDV = format: cell-based
extracellular DHBV = test: Photoinactivation of extracellular DHBV in RBC suspensions; format: cell-based; details: 10 μM TP; 200 μM DP; 20-percent hct RBCs in Erythrosol; 1.1 J/cm^2 light
extracellular HIV = test: Photoinactivation of extracellular HIV in RBC suspensions; format: cell-based, HIV-1; details: 80 μM TP; 200 μM DP; 20-percent hct RBCs in Erythrosol; 1.1 J/cm^2 light
red blood cells = details: cited from earlier work
RBCs [5] = test: Spectroscopic assay of TP binding to RBCs; details: 200 μM DP; 160 μM TP; 20-percent hct RBCs in Erythrosol
[6] = 160 μM compound 2, RBCs 20% hematocrit in Erythrosol, 2 min 8.9 mW/cm^2 red light
[7] = 100 μM TP, 200 μM DP and 1.1 J/cm^2 red light, 20% hct RBCs in Erythrosol, n = 4

Cc1cc(-c2ccc(N(C)C)cc2)cc(-c2ccc(N(C)C)cc2)[s+]1 [Compound 2, 2′,4′-bis(4-N,N-dimethylaminophenyl) 6′-methylthiopyrilium iodide]
log10 inactivation (S. epidermidis): >7.9 log10
log10 inactivation (S. aureus; [6]): >6.8 log10
bacteria remaining after inactivation (limit of detection) [1]: < 1 CFU/mL
log10 inactivation of intracellular VSV (intracellular VSV): 4.0 log10
log10 VSV inact. (intracellular) (intracellular VSV; 160 μM): >5 log10
log10 inactivation (S. liquefaciens): >7.4 log10
log10 inactivation (S. marcescens): >6.9 log10
log10 inactivation of extracellular VSV (extracellular VSV): > 7 log10
Log10 VSV inact. (extracellular) (extracellular VSV; 10 μM): 1.3 log10
Log10 VSV inact. (extracellular) (extracellular VSV; 20 μM): 2.2 log10
Log10 VSV inact. (extracellular) (extracellular VSV; 30 μM): 2.7 log10
Log10 VSV inact. (extracellular) (extracellular VSV; 60 μM): 4.8 log10
Log10 VSV inact. (extracellular) (extracellular VSV; 90 μM): 5.7 log10
Log10 VSV inact. (extracellular) (extracellular VSV; 160 μM): >7 log10
log10 inactivation (D. radiodurans): >7.9 log10
log10 inactivation (E. coli; [6]): >7.9 log10
log10 inactivation (P. fluorescens): >7.7 log10
log10 inactivation (Y. enterocolitica; [6]): >7.5 log10
hemolysis (red cells [2]): < 1%
Hemolysis (%) (day 42) (red cells [2]; 160 μM): 0.45%

Cc1cc(-c2ccc(N(C)C)cc2)cc(-c2ccc(N(C)C)cc2)[s+]1.[I-] [Compound 2, 2′,4′-bis(4-N,N-dimethylaminophenyl) 6′-methylthiopyrilium iodide]
log10 inactivation (S. epidermidis; n = 4): >7.6 log10
log10 inactivation of extracellular PRV (extracellular PRV): > 6.3 log10
log10 inactivation (S. aureus; [7]): >6.3 log10
log10 inactivation of 5 of 7 tested organisms [1]: > 6 log10
log10 inactivation of all tested organisms [1]: > 4 log10
log10 inactivation of intracellular HIV (intracellular HIV): 6.2±0.1 log10
potassium in the supernatant (red cells [3]): 16.6 ± 4.2 mM
potassium released to the supernatant (red cells [3]): 38.4 ± 4.4 mM
log10 inactivation (S. liquefaciens; n = 4): >7.1 log10
inactivation of all tested viruses (all tested viruses): inactivated to the limit of assay detection
log10 inactivation (S. marcescens; n = 4): 6.2 ± 1.0 log10
ATP level (RBCs [4]): 2.63±0.07 μmole/g Hb
morphology score (RBCs [4]): 94.5±1.5
log10 inactivation of extracellular BVDV (extracellular BVDV): > 6 log10
log10 inactivation of extracellular VSV (extracellular VSV): > 8.4 log10
log10 inactivation of extracellular DHBV (extracellular DHBV): > 5.8 log10
log10 inactivation (E. coli; [7]): 7.1 ± 0.5 log10
log10 inactivation (P. fluorescens; n = 4): 5.4 ± 1.0 log10
log10 inactivation of extracellular HIV (extracellular HIV): > 7.5 log10
log10 inactivation (Y. enterocolitica; [7]): 5.9 ± 0.6 log10
hemolysis following 42 day 1-6° C. storage (red cells [2]; n=10): 0.29%

Cc1cc(=[N+](C)C)cc2sc3cc(N(C)C)cc(C)c3nc1-2.[Cl-] [dimethylmethylene blue]
hemolysis (red blood cells; dye and light, after 6 week refrigerated storage in ADSOL): roughly 25%
hemolysis (red blood cells; following 6 weeks of 1-6° C. storage in Erythrosol): about 2%
hemolysis (red blood cells; six weeks of 1-6° C. storage in Erythrosol, RBCs pre-incubated with quinacrine): approximately 1.2%

OCCN(CCO)c1nc(N2CCCCC2)c2nc(N(CCO)CCO)nc(N3CCCCC3)c2n1 [dipyridamole, reference compound]
TP binding sites in RBCs blocked by DP (RBCs [5]): approximately 36%
